This note sets out measurements from PubChem BioAssay AID248 (DTP/NCI, 2004).

“And” between values parts separate entries of the source, which are not always exact repeats. Equal values may be shown once. Toxic doses and inconclusive results are not listed.

The test system of the test is L1210 leukemia ip in BDF1 mice, survival T/C. Description: NCI In Vivo Anticancer Drug Screen. Data for tumor model L1210 Leukemia (intraperitoneal) in B6D2F1 (BDF1) mice. The settings on record: endpoint: mean survival time, higher = longer survival. An outline of the steps: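 Antitumor effect is assessed in tumor-bearing animals. Survival in the compound arm is compared with a vehicle-dosed control arm and expressed as their quotient.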

The mark [1] stands for this setting: dose: 25.0 mg/kg/injection, schedule: Q01DX009 (ip), vehicle: saline.
The mark [2] stands for this setting: dose: 37.5 mg/kg/injection, schedule: Q01DX009 (ip), vehicle: saline.
Where [3] appears, read: dose: 75.0 mg/kg/injection, schedule: Q01DX009 (ip), vehicle: saline.
Where [4] appears, read: dose: 100.0 mg/kg/injection, schedule: Q01DX009 (ip), vehicle: saline.
Where [5] appears, read: dose: 150.0 mg/kg/injection, schedule: Q01DX009 (ip), vehicle: saline.
The mark [6] stands for this setting: dose: 100.0 mg/kg/injection, schedule: Q01DX009 (ip), vehicle: Klucel (hydroxypropylcellulose) (HPC).
[7] abbreviates: dose: 200.0 mg/kg/injection, schedule: Q01DX009 (ip), vehicle: Klucel (hydroxypropylcellulose) (HPC).
Setting [8] is: dose: 50.0 mg/kg/injection, schedule: Q01DX001 (ip), vehicle: saline.
Setting [9] is: dose: 100.0 mg/kg/injection, schedule: Q01DX001 (ip), vehicle: saline.
Setting [10] is: dose: 200.0 mg/kg/injection, schedule: Q01DX001 (ip), vehicle: saline.
The mark [11] stands for this setting: dose: 400.0 mg/kg/injection, schedule: Q01DX001 (ip), vehicle: saline.

Regarding `O=[N+]([O-])c1ccc(-[n+]2ccccc2)c([N+](=O)[O-])c1`, the T/C runs as follows: (dose: 18.75 mg/kg/injection, schedule: Q01DX009 (ip), vehicle: saline) 105 % of control; under setting [1], 105 % of control; under setting [2], 103 % of control; (dose: 50.0 mg/kg/injection, schedule: Q01DX009 (ip), vehicle: saline) 103 % of control; under setting [3], 102 % of control; under setting [4], 102 % of control. The T/C under setting [5] was 112 % of control.
For `COc1cc2c(cc1OC)C1CCN3C(=O)CCC3N1CC2` (configuration not stated), the T/C was 101 % of control (dose: 50.0 mg/kg/injection, schedule: Q01DX009 (ip), vehicle: Klucel (hydroxypropylcellulose) (HPC)); 101 % of control under setting [6]; 95 % of control (dose: 100.0 mg/kg/injection, schedule: Q01DX009 (ip), vehicle: saline with Tween-80); 104 % of control under setting [7]; 98 % of control (dose: 200.0 mg/kg/injection, schedule: Q01DX009 (ip), vehicle: saline with Tween-80); 98 % of control (dose: 400.0 mg/kg/injection, schedule: Q01DX009 (ip), vehicle: saline with Tween-80).
`NCCc1c[nH]c2ccccc12`: the T/C is 104 % of control under setting [8]; 102 % of control under setting [9]; 104 % of control (dose: 100.0 mg/kg/injection, schedule: Q04DX003 (ip), vehicle: saline with Tween-80); 91 % of control under setting [10]; 93 % of control (dose: 200.0 mg/kg/injection, schedule: Q04DX003 (ip), vehicle: saline with Tween-80); 110 % of control (dose: 400.0 mg/kg/injection, schedule: Q04DX003 (ip), vehicle: saline with Tween-80).
As to `Cc1ccc(S(=O)(=O)N/N=c2\cc(C)c3ccccc3n2C)cc1`, the T/C by setting is: (dose: 100.0 mg/kg/injection, schedule: Q04DX003 (ip), vehicle: gum acacia) 95 % of control; (dose: 200.0 mg/kg/injection, schedule: Q04DX003 (ip), vehicle: gum acacia) 94 % of control; (dose: 400.0 mg/kg/injection, schedule: Q04DX003 (ip), vehicle: gum acacia) 93 % of control.
Consider `CCOC(=O)N1C2C(c3ccccc3)=NC(C)(C)N2C(c2ccc([N+](=O)[O-])cc2)N1C(=O)OCC` (configuration not stated), for which the T/C was 93 % of control (dose: 100.0 mg/kg/injection, schedule: Q01DX001 (ip), vehicle: other); 102 % of control (dose: 200.0 mg/kg/injection, schedule: Q01DX001 (ip), vehicle: other); 91 % of control (dose: 400.0 mg/kg/injection, schedule: Q01DX001 (ip), vehicle: other).
On to `ClCCCSCCCCl`, for which the T/C is 103 % of control under setting [8], 112 % of control under setting [9], 124 % of control under setting [10] and 95 % of control under setting [11].
In the case of `COC(=O)c1ccccc1NC(=O)Nc1ccccc1`, the T/C was 108 % of control under setting [6]; 101 % of control (dose: 100.0 mg/kg/injection, schedule: Q04DX003 (ip), vehicle: Klucel (hydroxypropylcellulose) (HPC)); 101 % of control under setting [7]; 101 % of control (dose: 200.0 mg/kg/injection, schedule: Q04DX003 (ip), vehicle: Klucel (hydroxypropylcellulose) (HPC)); 100 % of control (dose: 400.0 mg/kg/injection, schedule: Q01DX009 (ip), vehicle: Klucel (hydroxypropylcellulose) (HPC)); 98 % of control (dose: 400.0 mg/kg/injection, schedule: Q04DX003 (ip), vehicle: Klucel (hydroxypropylcellulose) (HPC)).
As for `COc1ccc(COC(=O)Nc2cc(C(F)(F)F)ccc2Cl)cc1`, the T/C by setting is: under setting [4], 100 % of control; (dose: 200.0 mg/kg/injection, schedule: Q01DX009 (ip), vehicle: saline) 107 % of control; (dose: 400.0 mg/kg/injection, schedule: Q01DX009 (ip), vehicle: saline) 105 % of control.
On to `CCCCCCCC/C=C\CCCCCCCC(=O)NCCOC`, for which the T/C reads like this: under setting [2], 97 % of control; under setting [3], 92 % of control; (dose: 75.0 mg/kg/injection, schedule: Q04DX003 (ip), vehicle: saline) 90 % of control; under setting [5], 99 % of control; (dose: 150.0 mg/kg/injection, schedule: Q04DX003 (ip), vehicle: saline) 98 % of control; (dose: 300.0 mg/kg/injection, schedule: Q04DX003 (ip), vehicle: saline) 88 % of control.
As for `O=C1C=C(Nc2ccc(O)cc2)c2ccccc2C1=O`, the T/C by setting is: (dose: 3.12 mg/kg/injection, schedule: Q01DX009 (ip), vehicle: saline) 107 % of control; (dose: 6.25 mg/kg/injection, schedule: Q01DX009 (ip), vehicle: saline) 102 % of control; (dose: 12.5 mg/kg/injection, schedule: Q01DX009 (ip), vehicle: saline) 103 % of control; under setting [1], 91 % of control; (dose: 50.0 mg/kg/injection, schedule: Q04DX003 (ip), vehicle: saline) 103 % of control; (dose: 75.0 mg/kg/injection, schedule: Q01DX001 (ip), vehicle: carboxymethylcellulose (CMC)) 93 % of control. Besides, the T/C (dose: 100.0 mg/kg/injection, schedule: Q04DX003 (ip), vehicle: saline) is 95 % of control; the T/C (dose: 150.0 mg/kg/injection, schedule: Q01DX001 (ip), vehicle: carboxymethylcellulose (CMC)) is 100 % of control; the T/C (dose: 300.0 mg/kg/injection, schedule: Q01DX001 (ip), vehicle: carboxymethylcellulose (CMC)) was 90 % of control.
For `O=C(C1=CCCCC1)c1ccccc1`, the T/C by setting is: (dose: 75.0 mg/kg/injection, schedule: Q04DX002 (ip), vehicle: saline with Tween-80) 108 % of control; (dose: 150.0 mg/kg/injection, schedule: Q04DX002 (ip), vehicle: saline with Tween-80) 97 % of control; (dose: 300.0 mg/kg/injection, schedule: Q04DX002 (ip), vehicle: saline with Tween-80) 114 % of control.
As for `Clc1ccc(/C=N/N=C(N/N=C/c2ccc(Cl)cc2Cl)N/N=C/c2ccc(Cl)cc2Cl)c(Cl)c1`, the T/C (dose: 15.0 mg/kg/injection, schedule: Q01DX Z (ip), vehicle: carboxymethylcellulose (CMC)) is 88 % of control; the T/C (dose: 30.0 mg/kg/injection, schedule: Q01DX Z (ip), vehicle: carboxymethylcellulose (CMC)) was 93 % of control; the T/C (dose: 60.0 mg/kg/injection, schedule: Q01DX Z (ip), vehicle: carboxymethylcellulose (CMC)) is 95 % of control and 88 % of control; the T/C (dose: 120.0 mg/kg/injection, schedule: Q01DX Z (ip), vehicle: carboxymethylcellulose (CMC)) was 87 % of control and 88 % of control; the T/C (dose: 240.0 mg/kg/injection, schedule: Q01DX Z (ip), vehicle: carboxymethylcellulose (CMC)) is 93 % of control; the T/C (dose: 240.0 mg/kg/injection, schedule: Q01DX Z (oral), vehicle: carboxymethylcellulose (CMC)) was 102 % of control. The T/C (dose: 480.0 mg/kg/injection, schedule: Q01DX Z (ip), vehicle: carboxymethylcellulose (CMC)) was 87 % of control; the T/C (dose: 480.0 mg/kg/injection, schedule: Q01DX Z (oral), vehicle: carboxymethylcellulose (CMC)) is 104 % of control; the T/C (dose: 960.0 mg/kg/injection, schedule: Q01DX Z (oral), vehicle: carboxymethylcellulose (CMC)) was 105 % of control; the T/C (dose: 1920.0 mg/kg/injection, schedule: Q01DX Z (oral), vehicle: carboxymethylcellulose (CMC)) was 102 % of control.
As to `C=CCOP(=O)(N1CC1C)N1CC1C` (configuration not stated), the T/C runs as follows: (dose: 29.0 mg/kg/injection, schedule: Q01DX015 (ip), vehicle: saline) 105 % of control; (dose: 44.0 mg/kg/injection, schedule: Q01DX015 (ip), vehicle: saline) 120 % of control; (dose: 66.0 mg/kg/injection, schedule: Q01DX015 (ip), vehicle: saline) 114 % of control; (dose: 89.0 mg/kg/injection, schedule: Q01DX001 (ip), vehicle: saline) 108 % of control; under setting [10], 152 % of control; (dose: 300.0 mg/kg/injection, schedule: Q01DX001 (ip), vehicle: saline) 115 % of control. In addition, under setting [11], the T/C was 86 % of control.
As for `Nc1ccc(CCc2ccccc2)cc1`, the T/C (dose: 50.0 mg/kg/injection, schedule: Q01DX009 (ip), vehicle: saline with Tween-80) is 97 % of control.
On to `CCOC(=O)Nc1cccc([N+](=O)[O-])c1`, for which the T/C was 93 % of control (dose: 100.0 mg/kg/injection, schedule: Q04DX003 (ip), vehicle: other); 102 % of control (dose: 200.0 mg/kg/injection, schedule: Q04DX003 (ip), vehicle: other); 91 % of control (dose: 400.0 mg/kg/injection, schedule: Q04DX003 (ip), vehicle: other).
